The source of these data is US20190125785A1, “HYPOTHERMAL INHALATION GAS COMPOSITION” (MONATOMICS TECHNOLOGY, priority 2016, published 2019).

The nature of this test: rectal body temperature of rats after 3 hours in an enclosure supplied with a 22% oxygen / 78% helium, xenon or argon mixture at different temperatures. The test is classed as in vivo, rat. The note with it: comparison of FIGS. 1 and 2. The text has this: The graph of FIG. 1, which represents the experimental body temperature data Tc collected on rats as a function of the inhalation temperature Ti of a helium-oxygen mixture (curve C1) or of a xenon-oxygen mixture (curve C2), makes it possible to determine the proportions of the gas composition to be complied with in order to obtain a hypothermal gas mixture, depending on the inhalation temperature. In a more detailed manner, curves C1 and C2 correspond to regression lines obtained based on said experimental data Pi, several examples of which have been plotted in FIG. 1.
The experimental data were obtained as follows: The rats were placed for 3 hours in a closed enclosure supplied with a continuous flow of a gas mixture containing 22% oxygen (O2) and 78% helium, xenon or argon (He, Xe or Ar). This gas mixture was administered at different temperatures. The flow of the gas mixture was 10 mL/min and made it possible to maintain the carbon dioxide (CO2) concentration below 0.03% and the humidity at around 60% to 70%. […] At the end of the 3 hours of exposure, the rectal body temperature of the rats was measured for each administration temperature.
The inhalation temperature Ti can be between 16° C. and 27° C., for example.

In the case of `[Ar]` [Argon (Ar), Argon], the “hypothermal properties (slope of curve C3 compared with curve C2)” value was “lower hyperthermal properties than xenon”.
